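Grown in 96-well plates, cells were treated for 48 hours with each compound at five concentrations. Insufficient inhibition: endpoint recorded as highest concentration tested. TGI: total growth inhibition.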
Legend:
Experiment in all cases: growth of human tumour cells (NCI), 48 h
[1] = system: EKVX NSCLC
[2] = system: KM12 colon
[3] = system: SF-268 CNS
[4] = system: MALME-3M melanoma
[5] = system: SF-295 CNS
[6] = system: TK-10 renal
[7] = system: SR leukemia
[8] = system: SNB-19 CNS
[9] = system: IGROV1 ovarian
[10] = system: RXF 393 renal
[11] = system: A498 renal
[12] = system: SW-620 colon
[13] = system: CCRF-CEM leukemia
[14] = system: SK-OV-3 ovarian
[15] = system: MOLT-4 leukemia
[16] = system: DU-145 prostate
[17] = system: SN12C renal
[18] = system: 786-0 renal
[19] = system: K-562 leukemia
[20] = system: COLO 205 colon
[21] = system: HCC-2998 colon
[22] = system: NCI-H226 lung
[23] = system: U251 CNS
[24] = system: HOP-62 NSCLC
[25] = system: PC-3 prostate
[26] = system: ACHN renal
[27] = system: NCI-H23 lung
[28] = system: T-47D breast
[29] = system: SK-MEL-5 melanoma
[30] = system: MDA-MB-231 breast
[31] = system: HOP-92 NSCLC
[32] = system: NCI/ADR-RES ovarian
[33] = system: RPMI-8226 leukemia
[34] = system: MCF7 breast
[35] = system: SK-MEL-28 melanoma
[36] = system: SF-539 CNS
[37] = system: M14 melanoma
[38] = system: LOX IMVI melanoma
[39] = system: OVCAR-3 ovarian
[40] = system: HT29 colon
[41] = system: OVCAR-8 ovarian
[42] = system: MDA-N
[43] = system: HCT-15 colon
[44] = system: CAKI-1 renal
[45] = system: OVCAR-4 ovarian
[46] = system: UO-31 renal
[47] = system: UACC-62 melanoma
[48] = system: OVCAR-5 ovarian
[49] = system: NCI-H522 lung
[50] = system: HS 578T breast
[51] = system: SNB-75 CNS
[52] = system: HCT-116 colon
[53] = system: A549 NSCLC
[54] = system: MDA-MB-435
[55] = system: HL-60(TB) leukemia
[56] = system: UACC-257 melanoma
[57] = system: NCI-H460 lung
[58] = system: SK-MEL-2 melanoma

Measured: TGI

c1ccc([P+](Cc2ccc(C[P+](c3ccccc3)(c3ccccc3)c3ccccc3)cc2)(c2ccccc2)c2ccccc2)cc1
29.8 µM: [19]
50 µM: [38]
> 100 µM: [1] | [2] | [3] | [4] | [5] | [6] | [7] | [8] | [9] | [10] | [11] | [12] | [13] | [14] | [15] | [16] | [17] | [18] | [20] | [21] | [22] | [23] | [24] | [25] | [26] | [27] | [28] | [30] | [32] | [33] | [34] | [35] | [36] | [37] | [39] | [40] | [41] | [42] | [43] | [44] | [45] | [46] | [47] | [48] | [49] | [50] | [51] | [52] | [53] | [54] | [55] | [56] | [57]
90.1 µM: [29]
93.4 µM: [31]

Cc1nc2cccc(F)c2c(=O)n1C1CCCCNC1=O (centres undefined)
> 10 µM: [1] | [2] | [3] | [5] | [6] | [7] | [8] | [9] | [10] | [12] | [13] | [14] | [15] | [16] | [17] | [18] | [19] | [20] | [21] | [22] | [23] | [24] | [25] | [26] | [27] | [28] | [29] | [30] | [31] | [32] | [33] | [34] | [35] | [36] | [37] | [38] | [39] | [40] | [41] | [42] | [43] | [58] | [44] | [45] | [46] | [47] | [48] | [49] | [50] | [51] | [52] | [53] | [54] | [55] | [56] | [57]

CCOC(=O)c1c(N2CCCC2)nsc1Nc1ccc(F)cc1
57.5 µM: [4]
46.4 µM: [58]
31.9 µM: [10]
95.7 µM: [31]
> 100 µM: [1] | [2] | [3] | [5] | [6] | [7] | [8] | [9] | [11] | [12] | [14] | [16] | [17] | [18] | [19] | [20] | [21] | [22] | [23] | [24] | [25] | [26] | [27] | [30] | [32] | [33] | [35] | [36] | [37] | [38] | [39] | [41] | [42] | [43] | [44] | [45] | [47] | [49] | [50] | [52] | [53] | [54] | [56] | [57]
70.1 µM: [15]
46 µM: [28]
73.7 µM: [13]
46.8 µM: [46]
58.8 µM: [55]
68 µM: [40]
34.3 µM: [29]
89.7 µM: [48]

O=[N+]([O-])c1ccc(-c2nnc(C34CC5CC(CC(C5)C3)C4)o2)cc1
> 100 µM: [1] | [2] | [3] | [4] | [5] | [6] | [7] | [8] | [9] | [10] | [11] | [12] | [13] | [14] | [15] | [16] | [17] | [18] | [19] | [20] | [21] | [22] | [23] | [24] | [25] | [26] | [27] | [28] | [29] | [30] | [31] | [32] | [33] | [35] | [36] | [37] | [38] | [39] | [40] | [42] | [43] | [58] | [44] | [45] | [46] | [47] | [48] | [49] | [50] | [51] | [52] | [53] | [54] | [55] | [57]

Source: PubChem BioAssay (NCI)
